Test results published in ChEMBL document CHEMBL1201862, “PubChem BioAssay data set” (2004).
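Five compound concentrations were applied to cells in 96-well plates for 48 hours; endpoints were derived by simple linear interpolation of the resulting dose-response curve. The concentration for 50% growth inhibition is given as GI50.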 The source made the active and inactive calls. Rule as the data show it: active = GI50 up to about 1.1 µM and inactive = higher.

Assays:
Assay in all cases: growth of human tumour cells (NCI), 48 h
HL-60 = system: HL-60
OVCAR-3 = system: OVCAR-3
RXF 393 = system: RXF 393
SN12C = system: SN12C
UACC-62 = system: UACC-62
SF-295 = system: SF-295
HCC 2998 = system: HCC 2998
HCT-116 = system: HCT-116
LOX IMVI = system: LOX IMVI
RPMI-8226 = system: RPMI-8226
SK-OV-3 = system: SK-OV-3
NCI-H522 = system: NCI-H522
Malme-3M = system: Malme-3M
HOP-92 = system: HOP-92
PC-3 = system: PC-3
MCF7 = system: MCF7
NCI/ADR-RES = system: NCI/ADR-RES
T47D = system: T47D
DU-145 = system: DU-145

| Compound | GI50 (HL-60) | GI50 (OVCAR-3) | GI50 (RXF 393) | GI50 (SN12C) | GI50 (UACC-62) | GI50 (SF-295) | GI50 (HCC 2998) | GI50 (HCT-116) | GI50 (LOX IMVI) | GI50 (RPMI-8226) | GI50 (SK-OV-3) | GI50 (NCI-H522) | GI50 (Malme-3M) | GI50 (HOP-92) | GI50 (PC-3) | GI50 (MCF7) | GI50 (NCI/ADR-RES) | GI50 (T47D) | GI50 (DU-145) |
| --- | --- | --- | --- | --- | --- | --- | --- | --- | --- | --- | --- | --- | --- | --- | --- | --- | --- | --- | --- |
| COC(=O)C1=C(O)c2cc(-c3ccccc3)c(-c3ccccc3)c(C#N)c2NC(=O)C1 | 1.33 µM (inactive) | 77.8 µM (inactive) | 1.7 µM (inactive) | 47.9 µM (inactive) | 3.97 µM (inactive) | 3.54 µM (inactive) | 34.9 µM (inactive) | 1.92 µM (inactive) |  |  |  |  |  |  |  |  |  |  |  |
| CC(C)c1ccccc1NC(=O)CCc1n[nH]c(=S)o1 | > 59.8 µM (inactive) | > 100 µM (inactive) | > 100 µM (inactive) | > 100 µM (inactive) | > 100 µM (inactive) | > 100 µM (inactive) | > 100 µM (inactive) | > 63.5 µM (inactive) | > 100 µM (inactive) | > 48.9 µM (inactive) | > 100 µM (inactive) | > 100 µM (inactive) | > 100 µM (inactive) | > 100 µM (inactive) |  |  |  |  |  |
| COC1=CCC2=C(CCN(C(=O)C3CC3)C2Cc2ccc(OC)c(O)c2)C1 (stereo unspecified) | 26.7 µM (inactive) | 45.4 µM (inactive) | 13.5 µM (inactive) | 49.3 µM (inactive) | 48.8 µM (inactive) | 57.8 µM (inactive) | 35.1 µM (inactive) | 36.6 µM (inactive) | 86.7 µM (inactive) | 34.2 µM (inactive) | > 100 µM (inactive) | 28.8 µM (inactive) | 88.9 µM (inactive) | 27.9 µM (inactive) | 35.6 µM (inactive) | 33.2 µM (inactive) | 19 µM (inactive) | 21 µM (inactive) | > 100 µM (inactive) |
| Cc1cc(C)nc(NS(=O)(=O)c2ccc(Nc3c4ccccc4nc4c(C(=O)NCCN(C)C)cccc34)cc2)n1 | 1.49 µM (inactive) |  | 6.32 µM (inactive) | 2.79 µM (inactive) | 3.55 µM (inactive) | 1.91 µM (inactive) |  | 1.53 µM (inactive) | 1.74 µM (inactive) |  |  | 0.566 µM (active) |  |  |  |  |  |  |  |
| O=C(N/C(=C\c1ccc(/C=C(\NC(=O)c2ccccc2)c2nc3ccccc3[nH]2)cc1)c1nc2ccccc2[nH]1)c1ccccc1 |  | > 100 µM (inactive) | > 100 µM (inactive) | > 100 µM (inactive) | > 100 µM (inactive) | > 100 µM (inactive) | > 100 µM (inactive) | > 100 µM (inactive) | > 100 µM (inactive) | > 100 µM (inactive) | > 100 µM (inactive) | > 100 µM (inactive) | > 100 µM (inactive) | > 100 µM (inactive) |  |  |  |  |  |
| CSC(C1c2ccccc2N(c2ccc(C)cc2)C2=NC(=O)N(C)C(=O)C21Cl)S(=O)(=O)c1ccc(C)cc1 (stereo unspecified) | 3.31 µM (inactive) | 13.2 µM (inactive) |  | 21.7 µM (inactive) | 21.6 µM (inactive) | 24.2 µM (inactive) | 20.4 µM (inactive) | 13 µM (inactive) | 20.5 µM (inactive) | 16 µM (inactive) | 42.1 µM (inactive) | 13.4 µM (inactive) | 17.2 µM (inactive) | 11 µM (inactive) |  |  |  |  |  |
| O=S(=O)(N/N=C/c1ccc(Cl)cc1Cl)c1ccccc1 | 19.5 µM (inactive) | 91.4 µM (inactive) | 77.1 µM (inactive) | 27.4 µM (inactive) | > 100 µM (inactive) | > 100 µM (inactive) | > 100 µM (inactive) | 49 µM (inactive) | 97.9 µM (inactive) | 84.7 µM (inactive) | 91.8 µM (inactive) |  | > 100 µM (inactive) | 34.8 µM (inactive) |  |  |  |  |  |
| Cc1cc2c(C)n[nH]c2c(C(=O)O)c1C | > 100 µM (inactive) | > 100 µM (inactive) | > 100 µM (inactive) | > 100 µM (inactive) | > 100 µM (inactive) | > 100 µM (inactive) | > 100 µM (inactive) | > 100 µM (inactive) |  | > 100 µM (inactive) |  |  |  | < 0.01 µM (active) |  |  |  |  |  |
| COc1cc2c(cc1OC)C1Cc3cc(OC)c(OC)cc3N1CC2 (stereo unspecified) | 20.9 µM (inactive) | 31.9 µM (inactive) |  | 75.2 µM (inactive) | 26.1 µM (inactive) | 33.8 µM (inactive) | 79.4 µM (inactive) | 31.1 µM (inactive) |  | 28.8 µM (inactive) | 31.6 µM (inactive) | 12.2 µM (inactive) | 20.9 µM (inactive) | 33 µM (inactive) |  |  |  |  |  |
| C=CC(C)(C)C(=C)C(=O)Nc1ccccc1I |  | > 100 µM (inactive) | > 100 µM (inactive) | > 100 µM (inactive) | > 100 µM (inactive) | > 100 µM (inactive) | > 100 µM (inactive) | 81.8 µM (inactive) | 73.6 µM (inactive) | 98.4 µM (inactive) | > 100 µM (inactive) |  |  | > 100 µM (inactive) | > 100 µM (inactive) | > 100 µM (inactive) | > 100 µM (inactive) | > 100 µM (inactive) | > 100 µM (inactive) |
| O=C(O)c1c2c(cc3c(=O)c4ccccc4[nH]c13)CCCC2 | > 100 µM (inactive) | > 100 µM (inactive) | > 100 µM (inactive) | > 100 µM (inactive) | 76.7 µM (inactive) | 68.5 µM (inactive) | 46.3 µM (inactive) | 82 µM (inactive) | 60.5 µM (inactive) | > 100 µM (inactive) | > 100 µM (inactive) |  | > 100 µM (inactive) | 59.7 µM (inactive) |  |  |  |  |  |
| O=C(/C=C/c1ccc(Cl)cc1)c1ccncc1 | 32 µM (inactive) | 40.8 µM (inactive) | 21.4 µM (inactive) | 51.4 µM (inactive) | 76 µM (inactive) | 47.1 µM (inactive) | 40.4 µM (inactive) | 62.2 µM (inactive) | 27.1 µM (inactive) | 89.3 µM (inactive) | > 100 µM (inactive) | 64.9 µM (inactive) | > 100 µM (inactive) | > 100 µM (inactive) |  |  |  |  |  |
| Cc1nc2ccccc2[s+]c1-c1cnc(NC#N)nc1C(=O)Nc1cccc(Cl)c1 |  | > 100 µM (inactive) | > 100 µM (inactive) | > 100 µM (inactive) | > 100 µM (inactive) | > 100 µM (inactive) | > 100 µM (inactive) | > 100 µM (inactive) | > 100 µM (inactive) | > 100 µM (inactive) | > 100 µM (inactive) | > 100 µM (inactive) | > 100 µM (inactive) |  |  |  |  |  |  |
| COc1cc(CCc2ccncc2)cc(OC)c1OC | > 100 µM (inactive) | > 100 µM (inactive) | > 100 µM (inactive) | > 100 µM (inactive) | > 100 µM (inactive) | > 100 µM (inactive) |  | > 100 µM (inactive) | > 100 µM (inactive) | > 100 µM (inactive) |  | > 100 µM (inactive) | > 100 µM (inactive) | > 100 µM (inactive) |  |  |  |  |  |
| CCCNCCCCC(NC(C)=O)C(=O)NCc1ccccc1 (stereo unspecified) |  | > 100 µM (inactive) | > 100 µM (inactive) | > 100 µM (inactive) | > 100 µM (inactive) | > 100 µM (inactive) | > 100 µM (inactive) | > 100 µM (inactive) | > 100 µM (inactive) | > 100 µM (inactive) | > 100 µM (inactive) | > 100 µM (inactive) | > 100 µM (inactive) | > 100 µM (inactive) |  |  |  |  |  |
| N#CC(C(=O)C(=O)C(C#N)c1ccc(Br)cc1)c1ccc(Br)cc1 (stereo unspecified) | 4.06 µM (inactive) | 9.38 µM (inactive) | 4.26 µM (inactive) | 14.5 µM (inactive) | 1.51 µM (inactive) | 13.6 µM (inactive) | 12 µM (inactive) | 14.1 µM (inactive) | 11 µM (inactive) | 4.65 µM (inactive) | 15.7 µM (inactive) |  | 13.6 µM (inactive) | 13.3 µM (inactive) |  |  |  |  |  |
| CC(=O)c1ccc(-c2ccc(C(C)=O)s2)s1 | > 100 µM (inactive) | > 100 µM (inactive) | > 100 µM (inactive) | > 100 µM (inactive) | > 100 µM (inactive) | > 100 µM (inactive) | > 100 µM (inactive) | > 100 µM (inactive) | > 100 µM (inactive) | > 100 µM (inactive) | > 100 µM (inactive) | > 100 µM (inactive) | > 100 µM (inactive) | > 100 µM (inactive) |  |  |  |  |  |
| COC1CC(n2cc(F)c(N)nc2=O)OC1CO (stereo unspecified) | > 100 µM (inactive) | > 100 µM (inactive) | > 100 µM (inactive) | > 100 µM (inactive) |  | > 100 µM (inactive) | 9.77 µM (inactive) |  | > 100 µM (inactive) | > 100 µM (inactive) | > 100 µM (inactive) | > 100 µM (inactive) | > 100 µM (inactive) | > 100 µM (inactive) |  |  |  |  |  |
| COC1/C=C/C(C)C(C(C)C(OC)C(C)CCC(=O)C(C)C(CC(=O)O)OC)OC(=O)/C=C/C=C(\C)CC(OC)CC2=CC(=O)O[C@H](C2)C(C)C(OC)CC(OC)/C=C/C(C)C(OC)C1 (stereo partly specified) | 0.118 µM (active) | 1.07 µM (active) |  | 2.96 µM (inactive) | 0.315 µM (active) | 0.258 µM (active) | 2.62 µM (inactive) |  |  | 0.219 µM (active) | 0.695 µM (active) | 0.0259 µM (active) |  | 0.124 µM (active) | 0.38 µM (active) | 0.439 µM (active) | 2.66 µM (inactive) | 1.16 µM (inactive) | 0.548 µM (active) |
| Fc1ccc(C2SCc3nc4ccccc4n32)cc1Cl (stereo unspecified) | 13.1 µM (inactive) |  | 19.4 µM (inactive) | 16.3 µM (inactive) | 10.1 µM (inactive) | 26.5 µM (inactive) | 16.3 µM (inactive) |  | 17.9 µM (inactive) |  | 17.5 µM (inactive) | 13.7 µM (inactive) | 7.8 µM (inactive) | 12 µM (inactive) |  |  |  |  |  |
| CC(=O)c1c(O)c2c([nH]c1=O)CCCC2 | 48.3 µM (inactive) | > 100 µM (inactive) | 22.3 µM (inactive) | 22.5 µM (inactive) | 18.1 µM (inactive) | 15.7 µM (inactive) | 8.05 µM (inactive) |  | 20.1 µM (inactive) |  | 25.6 µM (inactive) |  | > 100 µM (inactive) | > 100 µM (inactive) |  |  |  |  |  |
